The results in this text go back to BindingDB's records for doi:10.1016/j.bmcl.2009.08.049 (Genentech, 2009).

The structures appear in SMILES notation. pIC50: −log10 of the molar value.

In this assay the target is Sonic hedgehog protein (Mus musculus, UniProt Q62226). As to the kind of experiment: Inhibition of SHH in mouse C3H10T1/2 cells by Gli-luciferase reporter gene assay.
Chain of Sonic hedgehog protein (Q62226 25-198 limits assumed): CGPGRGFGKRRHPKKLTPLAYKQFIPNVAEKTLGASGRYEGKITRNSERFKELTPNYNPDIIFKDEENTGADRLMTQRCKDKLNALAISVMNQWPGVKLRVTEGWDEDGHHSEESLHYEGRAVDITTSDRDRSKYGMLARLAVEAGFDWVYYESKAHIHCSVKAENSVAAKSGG
For `O=C(Nc1ccc(Cl)c(-c2ccccn2)c1)c1ccccc1Cl` [2-chloro-N-(4-chloro-3-(pyridin-2-yl)phenyl)benzamide], the pIC50 (commonly the IC50 on a negative log10 scale, so that one unit is a factor of ten) was 6.96. With `O=C(Nc1ccc(Cl)c(-c2ccccn2)c1)c1cccc(Cl)c1` [3-chloro-N-(4-chloro-3-(pyridin-2-yl)phenyl)benzamide], the pIC50 was 5.82.

For `O=C(Nc1ccc(Cl)c(-c2ccccn2)c1)c1ccc(Cl)cc1` [4-chloro-N-(4-chloro-3-(pyridin-2-yl)phenyl)benzamide], the pIC50 was 5.82. Consider `Cc1nc(C(F)(F)F)ccc1C(=O)Nc1ccc(Cl)c(-c2nc3ccccc3[nH]2)c1` [N-(3-(1H-benzo[d]imidazol-2-yl)-4-chlorophenyl)-2-methyl-6-(trifluoromethyl)nicotinamide], for which the pIC50 is 7.92. `Cc1nc(C(F)(F)F)ccc1C(=O)Nc1ccc(Cl)c(-c2nc3ccccc3s2)c1` [N-(3-(benzo[d]thiazol-2-yl)-4-chlorophenyl)-2-methyl-6-(trifluoromethyl)nicotinamide] had a pIC50 of 7.15. In the case of `Cc1nc(C(F)(F)F)ccc1C(=O)Nc1ccc(Cl)c(-c2nc3ccccc3n2C)c1` [N-(4-chloro-3-(1-methyl-1H-benzo[d]imidazol-2-yl)phenyl)-2-methyl-6-(trifluoromethyl)nicotinamide] it was 8.05. In the case of `Cc1nc(C(F)(F)F)ccc1C(=O)Nc1ccc(Cl)c(-c2ccn(C)n2)c1` [N-(4-chloro-3-(1-methyl-1H-pyrazol-3-yl)phenyl)-2-methyl-6-(trifluoromethyl)nicotinamide] it was 6.26; in that of `Cc1nc(C(F)(F)F)ccc1C(=O)Nc1ccc(Cl)c(-c2nc3c(n2C)CCCC3)c1` [N-(4-chloro-3-(1-methyl-4,5,6,7-tetrahydro-1H-benzo[d]imidazol-2-yl)phenyl)-2-methyl-6-(trifluoromethyl)nicotinamide], 6.82. Regarding `Cc1nc(C(F)(F)F)ccc1C(=O)Nc1ccc(Cl)c(-c2cc3ccccc3[nH]2)c1` [N-(4-chloro-3-(1H-indol-2-yl)phenyl)-2-methyl-6-(trifluoromethyl)nicotinamide], the pIC50 was 6.30.

For the compound `Cc1nc(C(F)(F)F)ccc1C(=O)Nc1ccc(Cl)c(-n2cccn2)c1` [N-(4-chloro-3-(1H-pyrazol-1-yl)phenyl)-2-methyl-6-(trifluoromethyl)nicotinamide], the pIC50 was 6.35.

`Cc1nc(C(F)(F)F)ccc1C(=O)Nc1ccc(Cl)c(-c2cc[nH]n2)c1` [N-(4-chloro-3-(1H-pyrazol-3-yl)phenyl)-2-methyl-6-(trifluoromethyl)nicotinamide] gave a pIC50 of 5.05. `Cc1nc(C(F)(F)F)ccc1C(=O)Nc1ccc(Cl)c(-n2cc3ccccc3n2)c1` [N-(4-chloro-3-(2H-indazol-2-yl)phenyl)-2-methyl-6-(trifluoromethyl)nicotinamide] had a pIC50 of 7.10. Regarding `Cc1c[nH]c(-c2cc(NC(=O)c3ccc(C(F)(F)F)nc3C)ccc2Cl)n1` [N-(4-chloro-3-(5-methyl-1H-imidazol-2-yl)phenyl)-2-methyl-6-(trifluoromethyl)nicotinamide], the negative-log IC50 (pIC50) is 6.59. In the case of `Cc1nc(C(F)(F)F)ccc1C(=O)Nc1ccc(Cl)c(-c2cn3ccsc3n2)c1` [N-(4-chloro-3-(imidazo[2,1-b]thiazol-6-yl)phenyl)-2-methyl-6-(trifluoromethyl)nicotinamide] it was 6.70; in that of `Cc1nc(C(F)(F)F)ccc1C(=O)Nc1ccc(Cl)c(-c2cc3ccccn3c2)c1` [N-(4-chloro-3-(indolizin-2-yl)phenyl)-2-methyl-6-(trifluoromethyl)nicotinamide], 5.38. The result for `Cc1nc(C(F)(F)F)ccc1C(=O)Nc1ccc(Cl)c(C(=O)Nc2ccccc2)c1` [N-(4-chloro-3-(phenylcarbamoyl)phenyl)-2-methyl-6-(trifluoromethyl)nicotinamide] reads 6.85. Compound `Cc1nc(C(F)(F)F)ccc1C(=O)Nc1ccc(Cl)c(-c2cnccn2)c1` [N-(4-chloro-3-(pyrazin-2-yl)phenyl)-2-methyl-6-(trifluoromethyl)nicotinamide] showed a pIC50 of 5.77.

With `Cc1nc(C(F)(F)F)ccc1C(=O)Nc1ccc(Cl)c(-c2cc3ccccn3n2)c1` [N-(4-chloro-3-(pyrazolo[1,5-a]pyridin-2-yl)phenyl)-2-methyl-6-(trifluoromethyl)nicotinamide], the pIC50 is 6.77. As to `Cc1ccc(C(=O)Nc2ccc(Cl)c(-c3ccccn3)c2)c(C)n1` [N-(4-chloro-3-(pyridin-2-yl)phenyl)-2,6-dimethylnicotinamide], the pIC50 is 6.89. In turn, `Cc1nc(C(F)(F)F)ccc1C(=O)Nc1ccc(Cl)c(-c2ccccn2)c1` [N-(4-chloro-3-(pyridin-2-yl)phenyl)-2-methyl-6-(trifluoromethyl)nicotinamide] had a pIC50 of 7.38.

For the compound `CS(=O)(=O)c1cccc(C(=O)Nc2ccc(Cl)c(-c3ccccn3)c2)c1` [N-(4-chloro-3-(pyridin-2-yl)phenyl)-3-(methylsulfonyl)benzamide], the pIC50 is 6.92. `CS(=O)(=O)c1ccc(C(=O)Nc2ccc(Cl)c(-c3ccccn3)c2)cc1` [N-(4-chloro-3-(pyridin-2-yl)phenyl)-4-(methylsulfonyl)benzamide] had a pIC50 of 7.40. Take `O=C(Nc1ccc(Cl)c(-c2ccccn2)c1)c1ccccc1` [N-(4-chloro-3-(pyridin-2-yl)phenyl)benzamide]: the pIC50 is 6.10. In the case of `O=C(Nc1ccc(Cl)c(-c2ccccn2)c1)c1ccncc1` [N-(4-chloro-3-(pyridin-2-yl)phenyl)isonicotinamide] it was 6.15; in that of `O=C(Nc1ccc(Cl)c(-c2ccccn2)c1)c1cccnc1` [N-(4-chloro-3-(pyridin-2-yl)phenyl)nicotinamide], 6.22; in that of `O=C(Nc1ccc(Cl)c(-c2ccccn2)c1)c1ccccn1` [N-(4-chloro-3-(pyridin-2-yl)phenyl)picolinamide], 5.52. In the case of `Cc1nc(C(F)(F)F)ccc1C(=O)Nc1ccc(Cl)c(-c2cccnc2)c1` [N-(4-chloro-3-(pyridin-3-yl)phenyl)-2-methyl-6-(trifluoromethyl)nicotinamide] it was 5.00; in that of `Cc1nc(C(F)(F)F)ccc1C(=O)Nc1ccc(Cl)c(-c2ccncc2)c1` [N-(4-chloro-3-(pyridin-4-yl)phenyl)-2-methyl-6-(trifluoromethyl)nicotinamide], 5.62. With `Cc1nc(C(F)(F)F)ccc1C(=O)Nc1ccc(Cl)c(-c2ncccn2)c1` [N-(4-chloro-3-(pyrimidin-2-yl)phenyl)-2-methyl-6-(trifluoromethyl)nicotinamide], the pIC50 was 5.10. In the case of `Cc1nc(C(F)(F)F)ccc1C(=O)Nc1ccc(Cl)c(-c2cnc3ccccc3n2)c1` [N-(4-chloro-3-(quinoxalin-2-yl)phenyl)-2-methyl-6-(trifluoromethyl)nicotinamide] it was 7.28.
